The source of these data is ChEMBL document CHEMBL3399952, “Design and synthesis of novel anti-tuberculosis agents from the celecoxib pharmacophore” (Bioorg Med Chem, 2015).

Molecules are shown by their SMILES. Calls of active or inactive are those of the source. No cut-off for these calls is given here.

The test system of data set [1] is Mycobacterium tuberculosis. The data set can be described thus: Antimycobacterial activity against Mycobacterium tuberculosis H37Rv expressing Lux assessed as reduction in growth measured at 5 uM after 3 weeks by bioluminescence assay. Format: functional, organism-based.
Data set [2] has as its system Mycobacterium tuberculosis. Description: Antimycobacterial activity against Mycobacterium tuberculosis H37Rv expressing Lux infected in human macrophages assessed as reduction in growth measured at 5 to 20 uM after 3 weeks by bioluminescence assay. It is filed as functional, organism-based.
Data set [3] is described as follows: Cytotoxicity against human macrophages assessed as cell death at 20 uM by TMRE-based assay. Set-up: species or system Macrophage. The note with it: read-out: INH.
Data set [4] deals with Mycobacterium tuberculosis. The data set can be described thus: Antimycobacterial activity against Mycobacterium tuberculosis H37Rv expressing Lux infected in human macrophages assessed as reduction in growth measured at <= 2.5 uM after 72 hrs by bioluminescence assay. It is filed as functional, organism-based.
Data set [5] concerns Mycobacterium tuberculosis. The data set can be described thus: Antimycobacterial activity against Mycobacterium tuberculosis H37Rv assessed as reduction in growth measured at <= 2.5 uM after 72 hrs by CFU assay. Format: functional.
Data set [6] has as its system Mycobacterium tuberculosis. Description: Antimycobacterial activity against Mycobacterium tuberculosis H37Rv expressing Lux infected in human macrophages assessed as […] reduction in growth measured at 5 uM after 48 hrs by bioluminescence assay. It is filed as functional, organism-based.
In data set [7] the test system is Mycobacterium tuberculosis. The data set can be described thus: Antimycobacterial activity against Mycobacterium tuberculosis H37Rv expressing Lux assessed as reduction in growth measured after 3 weeks by bioluminescence assay. Format: functional, organism-based. Conditions: 504 h.
Data set [8] can be described thus: Cytotoxicity against human macrophages assessed as cell death at 1.25 to 40 uM after 48 hrs by TMRE-based assay. Conditions: macrophage.
For data set [9], the system named is Mycobacterium tuberculosis. Description: Antimycobacterial activity against Mycobacterium tuberculosis H37Rv assessed as reduction in growth measured after 48 hrs by CFU assay. It is filed as functional.
Data set [10] can be described thus: Cytotoxicity against human macrophages assessed as cell death at > 10 uM by TMRE-based assay. Conditions: macrophage.

As to `CNC(=O)CCc1cc(-c2ccc(-c3ccc(C(F)(F)F)cc3)cc2)n(-c2ccc(NS(=O)(=O)NC(=O)OC(C)(C)C)cc2)n1`, the inhibition entry in [1] and in [2] was “Active” throughout. Moreover, in data set [3], the cytotoxicity at 20 µM stood at 26%.

For the molecule `CNC(=O)CCc1cc(-c2ccc(-c3ccc(C(F)(F)F)cc3)cc2)n(-c2ccc(NC(=O)c3ccnc(C)c3)cc2)n1`, the inhibition result in data set [4] and in data set [6] was “Active” throughout. The “fold change (FC)” value in data set [5] is on record as greater than 1. The IC50 in data set [7] was found to be 0.29 µM. For the same molecule, the Activity result in data set [8] is on record as “Non-toxic”.

Regarding `NS(=O)(=O)Nc1ccc(-n2nc(C(F)(F)F)cc2-c2ccc3c(ccc4ccccc43)c2)cc1`, the “fold change (FC)” value in [9] is 1.

For the molecule `CNC(=O)CCc1cc(-c2ccc(-c3ccc(C(F)(F)F)cc3)cc2)n(-c2ccc(NC(=O)c3ccncc3Cl)cc2)n1`, in data set [4], the inhibition entry was “Active”. In addition, the “fold change (FC)” value in [5] is greater than 1. Moreover, in data set [7], the IC50 was 0.43 µM. In [8], the Activity result is given as “Non-toxic”.

Regarding `CNC(=O)CCc1cc(-c2ccc(-c3ccc(C(F)(F)F)cc3)cc2)n(-c2ccc(NC(=O)c3ccc(N)cc3)cc2)n1`, the inhibition result in data set [4] was “Active”. Also, the “fold change (FC)” value in [5] is on record as greater than 1. In [7], the IC50 was found to be 0.32 µM. In addition, the Activity result in data set [10] is “Toxic”.

Turning to `CNC(=O)CCc1cc(-c2ccc(-c3ccc(C(F)(F)F)cc3)cc2)n(-c2ccc(NS(=O)(=O)N(C)C)cc2)n1`, the inhibition entry in data set [1] and in data set [2] was “Active” in each case. For the same molecule, the cytotoxicity at 20 µM in data set [3] was found to be 4%. Besides, the IC50 in [7] came to 2.2 µM.

Turning to `CNC(=O)CCc1cc(-c2ccc(-c3ccc(C(F)(F)F)cc3)cc2)nn1-c1ccc(NC(=O)c2ccncc2)cc1`, the inhibition result in data set [4] and in [6] was “Active” in each case. The “fold change (FC)” value in data set [5] is recorded as greater than 1. Further, the IC50 in data set [7] was found to be 0.27 µM. Moreover, the Activity entry in data set [8] is given as “Non-toxic”.

`CCc1nc2ccc(Cl)cn2c1C(=O)NCc1ccc(N2CCC(c3ccc(OC(F)(F)F)cc3)CC2)cc1` [TELACEBEC]: the IC50 in data set [7] is less than 0.003 µM.

On to `O=[N+]([O-])c1cn2c(n1)OC[C@@H](OCc1ccc(OC(F)(F)F)cc1)C2` [PRETOMANID], for which the IC50 in [7] came out at 0.4 µM.

On to `NNC(=O)c1ccncc1` [ISONIAZID], for which the inhibition entry in data set [1] was “Active”. In addition, the IC50 in [7] was determined as 0.33 µM.

`COc1nc2ccc(Br)cc2cc1[C@@H](c1ccccc1)[C@@](O)(CCN(C)C)c1cccc2ccccc12` [BEDAQUILINE]: in data set [7], the IC50 was 0.05 µM.

As to `CNC(=O)CCc1cc(-c2ccc(-c3ccc(C(F)(F)F)cc3)cc2)n(-c2ccc(NC(=O)c3ccncc3)cc2)n1`, the inhibition entry in data set [4] and in data set [6] was “Active” in each case. Further, in data set [5], the “fold change (FC)” value is recorded as greater than 1. In data set [7], the IC50 amounted to 0.48 µM. Moreover, the Activity result in data set [8] was “Non-toxic”.

As for `CNC(=O)CCc1cc(-c2ccc(-c3ccc(C(F)(F)F)cc3)cc2)n(-c2ccc(NC(=O)c3cn(C)cn3)cc2)n1`, in data set [4], the inhibition result is “Active”. Besides, the “fold change (FC)” value in [5] was greater than 1. Moreover, the IC50 in data set [7] came to 0.18 µM. In addition, the Activity result in [8] is reported as “Non-toxic”.
